Laboratory results taken from patent US20150045423A1, “COMPOUNDS FOR THE PREVENTION AND/OR TREATMENT OF OSTEOARTHROSIS” (Universitaetsklinikum Muenster, priority 2010, published 2015).

test system: hyaluronan export from fibroblasts; test: Assay for hyaluronan transport/export inhibitors in fibroblast cell culture (hyaluronan in culture medium by ELISA); assay type: cell-based; details: 48 h, 2 days at 37° C., hyaluronan concentration in culture medium, read-out: Inhibition of hyaluronan export IC50
Method: Assay for Hyaluronan Transport/Export Inhibitors in Fibroblast Cell Culture
Trypsinized fibroblasts were suspended in Dulbeccos medium at 10^5 cells/ml and 100 μl aliquots were transferred to a 96 well microtiter plate. The first row received 200 μl of the suspension and 20 μl of the inhibitors of the invention dissolved in phosphate buffered saline at concentrations of 4 mM. A serial dilution of the inhibitors was established by transfer of 100 μl aliquots from the first row to the following rows. All experiments were performed in duplicates. […] The cells were incubated for 2 days at 37° C. and aliquots (5 and 20 μl) of the culture medium were used for measurement of the hyaluronan concentration in the cell culture medium by an ELISA [125]. Briefly, the wells of a 96 well Covalink-NH-microtiter plate (NUNC) were coated with 100 μl of a mixture of […] of hyaluronan (HEALON®), 9.2 μg/ml of N-Hydroxysuccinimide-3-sulfonic acid and 615 μl/ml of 1-ethyl-3-(3-dimethylaminopropyl)-carbodiimide for 2 hours at room temperature and overnight at 4° C. The wells were washed three times with 2 M NaCl, 41 mM MgSO4, 0.05% Tween-20 in 50 mM phosphate buffered saline pH 7.2 (buffer A) and once with 2 M NaCl, 41 mM MgSO4, in phosphate buffered saline pH 7.2. Additional binding sites were blocked by incubation with 300 μl of 0.5% bovine serum albumin in phosphate buffered saline for 30 min at 37° C. Calibration of the assay was performed with standard concentrations of hyaluronan ranging from 15 ng/ml to 6000 ng/ml in equal volumes of culture medium as used for measurement of the cellular supernatants. A solution (50 μl) of the biotinylated hyaluronan binding fragment of aggrecan (Calbiochem) in 1.5 M NaCl, 0.3 M guanidinium hydrochloride, 0.08% bovine serum albumin 0.02% NaN3 25 mM phosphate buffer pH 7.0 was preincubated with 50 μl of the standard hyaluronan solutions or cellular supernatants for 1 hour at 37° C. […] The adsorption was read at 490 nm. The concentrations in the samples were calculated from a logarithmic regression curve of the hyaluronan standard solutions.

Structure (SMILES)	IC50
CC(C)=CCc1c(O)cc(O)c2c1OC(c1ccc(O)cc1)CC2=O (stereo not drawn) [8-Prenylnaringenin]	15 µM
COc1cc(O)c(CC=C(C)C)c2c1C(=O)CC(c1ccc(O)cc1)O2 (stereo not drawn) [Isoxanthohumol]	15 µM
COc1cc(O)c(CC=C(C)C)c(O)c1C(=O)/C=C/c1ccc(O)cc1 [Xanthohumol]	8 µM
